Patent publication US20130324606A1, “Ester Derivatives of Bimatoprost Compositions and Methods” (ALLERGAN, INC., priority 2011, published 2013)

Experiments:
mouse skin = test: Pathology assessment of mouse hair regrowth model; format: in vivo, mice; details: histology, 0.03% active, vehicle control still in growth phase
From the text: Histological samples from test subjects employed in the studies described in Example 12 were obtained for pathology assessment.

[1] = Pharmacokinetic assessment of mouse hair regrowth model; format: in vivo; details: mice, 0.03% dermal daily ~60 uL, all measured time points, LC/MS-MS
Description: Female C57BL/6J mice (n=2) were assayed per time point per treatment group. Treatment groups: (1) vehicle; (2) 0.03% Cmpd IVa; (3) 0.03% Cmpd IIIb; (4) 0.03% Cmpd IVb; (5) 0.03% bimatoprost. Treatment dosing: dermal daily application of ˜60 uL test compound solution. Blood and skin pharmacokinetic time points were obtained at day 1 (1, 4, 8 and 24-hrs post-dose); day 2 (24-hrs post-dose); day 14 (24-hrs post-dose); and day 42 (28 days post day 14 dose). Bioanalysis employed LC/MS-MS.

[2] = In vitro human skin penetration (Franz diffusion chamber); format: in vitro ADME
From the text: Test material: Dermatomed ex vivo human cadaver posterior trunk skin on 1.0 cm^2 Franz diffusion chamber as known in the art. Test size: 3 skin donors (obtained from New York Firefighters Skin Bank), 3 replicates per donor per formulation. Test formulations: 0.03% active agent (Cmpd IVa, Cmpd IIIb, Cmpd IVb) in Formulation A; control formulation: bimatoprost at 0.03% in Formulation A. Dosing regimen: receptor fluid at 2, 4, 24, and 48 hrs; SC/epidermis and dermis at 48 hrs. Sample analysis: LC/MS-MS to detect bimatoprost and Cmpds IVa, IIIb and IVb.

level in the systemic circulation [1]: most undetectable
penetration flux relative to bimatoprost ([2]; 0.03% in Formulation A, FIG. 13B): greater than that for bimatoprost
Percentage Dose Applied, Receptor Chamber Solution, Prodrug ([2]; 0.03% in Formulation A, Franz chamber, dosed compound): 4.3 Percentage Dose Applied
Percentage Dose Applied, Upper ⅓ Dermis, Prodrug ([2]; 0.03% in Formulation A, dermis at 48 hrs, dosed compound): 3.8 Percentage Dose Applied
conversion to bimatoprost in the SC/Epi/Dermis layers ([2]; FIG. 15A): converted to bimatoprost
amount of active agent in the upper third of the dermis relative to bimatoprost ([2]; FIG. 15B): less than observed for bimatoprost
Structure (SMILES): CCNC(=O)CCC/C=C\C[C@@H]1[C@@H](/C=C/[C@H](CCc2ccccc2)OC(C)=O)[C@H](O)C[C@@H]1O [Cmpd IVa, 15-acetyl-bimatoprost]
hair cycle phase at day-42 (mouse skin): returned to the resting phase
skin penetration (cumulative amount in receptor solution) relative to bimatoprost ([2]; 0.03% in Formulation A, FIG. 13A): significantly greater than for bimatoprost
